IC50 data for 27 compounds are collected here from patent US11590139B2, “Substituted aminopurine compounds, compositions thereof, and methods of treatment therewith” (Signal Pharmaceuticals, LLC, priority 2014, dated 2023).

The first test relates to Lox-IMVI melanoma cell line. The experiment in a line: Lox-IMVI anti-proliferative assay (growth inhibition, Cell Titer-Glo). Type of test: cell-based, human. The following applies: Homo sapiens; IC50 activity level in the cell-based Lox-IMVI anti-proliferative assay; read-out: Activity. In outline: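 Cells grown in RPMI + 10% FBS were exposed to compound at 0.5 nM to 10 μM (10-point, 3-fold dilution, duplicate, 0.2% DMSO final) for 72 h at 37 °C, 5% CO2. Viability was read by ATP luminescence at t0 and 72 h. IC50 came from a four-parameter logistic fit normalized to DMSO control.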
Turning to `NC(=O)[C@H]1CC[C@@H](n2c(Nc3c(F)cc(Cl)cc3Cl)nc3cnc(N[C@@H]4COC[C@H]4O)nc32)CC1` [Example 314, (1S,4s)-4-(8-(2,4-dichloro-6-fluorophenylamino)-2-((3R,4S)-4-hydroxytetrahydrofuran-3-ylamino)-9H-purin-9-yl)cyclohexanecarboxamide], the IC50 is > 1000 nM.
The same measure, in the same setting: the value for `CC[C@H](CO)Nc1ncc2nc(Nc3c(Cl)cc(F)cc3Cl)n([C@H]3CC[C@@H](C(N)=O)CC3)c2n1` [Example 126, (1S,4s)-4-(8-(2,6-dichloro-4-fluorophenylamino)-2-((R)-1-hydroxybutan-2-ylamino)-9H-purin-9-yl)cyclohexanecarboxamide] was > 1000 nM; that for `NC(=O)[C@H]1CC[C@@H](n2c(Nc3c(Cl)cc(F)cc3Cl)nc3cnc(NC4CCCC4)nc32)CC1` [Example 121, (1s,4s)-4-(2-(cyclopentylamino)-8-(2,6-dichloro-4-fluorophenylamino)-9H-purin-9-yl)cyclohexanecarboxamide] was 500 to 1000 nM.
With `NC(=O)[C@H]1CC[C@@H](n2c(Nc3c(F)cccc3Cl)nc3cnc(NC4COC4)nc32)CC1` [Example 57, (1s,4s)-4-(8-(2-chloro-6-fluorophenylamino)-2-(oxetan-3-ylamino)-9H-purin-9-yl)cyclohexanecarboxamide], the IC50 is > 1000 nM.
Take `NC(=O)[C@H]1CC[C@@H](n2c(Nc3c(F)cc(F)cc3Cl)nc3cnc(N[C@H]4CCCOC4)nc32)CC1` [Example 245, (1R,4s)-4-(8-(2-chloro-4,6-difluorophenylamino)-2-((S)-tetrahydro-2H-pyran-3-ylamino)-9H-purin-9-yl)cyclohexanecarboxamide]: the IC50 was > 1000 nM.
Still for that read-out and setting: the value for `NC(=O)[C@H]1CC[C@@H](n2c(Nc3c(Cl)cc(Cl)cc3Cl)nc3cnc(N[C@H]4CCOC[C@H]4F)nc32)CC1` [Example 303, (1R,4s)-4-(2-((3S,4S)-3-fluorotetrahydro-2H-pyran-4-ylamino)-8-(2,4,6-trichlorophenylamino)-9H-purin-9-yl)cyclohexanecarboxamide] was < 250 nM.
In the case of `NC(=O)[C@H]1CC[C@@H](n2c(Nc3c(Cl)cc(F)cc3Cl)nc3cnc(NC4CCC(F)(F)CC4)nc32)CC1` [Example 201, (1s,4s)-4-(8-(2,6-dichloro-4-fluorophenylamino)-2-(4,4-difluorocyclohexylamino)-9H-purin-9-yl)cyclohexanecarboxamide], the IC50 lay in the range of 250 to 500 nM.
Consider `NC(=O)[C@H]1CC[C@@H](n2c(Nc3c(F)cc(F)cc3Cl)nc3cnc(N[C@H]4CCC[C@@H](O)C4)nc32)CC1` [Example 371, (1R,4s)-4-(8-(2-chloro-4,6-difluorophenylamino)-2-((1S,3R)-3-hydroxycyclohexylamino)-9H-purin-9-yl)cyclohexanecarboxamide], for which the IC50 was > 1000 nM.
For the compound `NC(=O)[C@H]1CC[C@@H](n2c(Nc3cc(F)c(Cl)cc3F)nc3cnc(N[C@@H]4CCC[C@H]4O)nc32)CC1` [Example 265, (1S,4s)-4-(8-(4-chloro-2,5-difluorophenylamino)-2-((1R,2R)-2-hydroxycyclopentylamino)-9H-purin-9-yl)cyclohexanecarboxamide], the IC50 is > 1000 nM.
Still for that read-out and setting: the value for `CS(=O)(=O)N1CCC(Nc2ncc3nc(Nc4c(Cl)cccc4Cl)n([C@H]4CC[C@@H](C(N)=O)CC4)c3n2)CC1` [Example 293, (1s,4s)-4-(8-(2,6-dichlorophenylamino)-2-(1-(methylsulfonyl)piperidin-4-ylamino)-9H-purin-9-yl)cyclohexanecarboxamide] was > 1000 nM; that for `C[C@@H]1CC[C@@H](Nc2ncc3nc(Nc4c(Cl)cccc4Cl)n([C@H]4CC[C@@H](C(N)=O)CC4)c3n2)C[C@H]1O` [Example 345, (1S,4s)-4-(8-(2,6-dichlorophenylamino)-2-((1R,3R,4R)-3-hydroxy-4-methylcyclohexylamino)-9H-purin-9-yl)cyclohexanecarboxamide] was > 1000 nM; that for `NC(=O)[C@H]1CC[C@@H](n2c(Nc3c(F)cc(F)cc3Cl)nc3cnc(N[C@@H]4CCOC4)nc32)CC1` [Example 199, (1S,4s)-4-(8-(2-chloro-4,6-difluorophenylamino)-2-((R)-tetrahydrofuran-3-ylamino)-9H-purin-9-yl)cyclohexanecarboxamide] was 500 to 1000 nM.
Still for that read-out and setting: the value for `NC(=O)[C@H]1CC[C@@H](n2c(Nc3cccc(F)c3Cl)nc3cnc(NC4CCOCC4)nc32)CC1` [Example 61, (1s,4s)-4-(8-(2-chloro-3-fluorophenylamino)-2-(tetrahydro-2H-pyran-4-ylamino)-9H-purin-9-yl)cyclohexanecarboxamide] was > 1000 nM.
Regarding `CC(=O)N1CCC(Nc2ncc3nc(Nc4c(F)cc(Cl)cc4Cl)n([C@H]4CC[C@@H](C(N)=O)CC4)c3n2)CC1` [Example 198, (1s,4s)-4-(2-(1-acetylpiperidin-4-ylamino)-8-(2,4-dichloro-6-fluorophenylamino)-9H-purin-9-yl)cyclohexanecarboxamide], the IC50 is > 1000 nM.

Staying with this test, now noted: Homo sapiens; Lox-IMVI anti-proliferative assay, IC50 activity level; read-out: Activity.
Consider `NC(=O)[C@H]1CC[C@@H](n2c(Nc3c(F)cc(Cl)cc3F)nc3cnc(NCC(F)(F)CO)nc32)CC1` [Example 453, (1s,4s)-4-(8-(4-chloro-2,6-difluorophenylamino)-2-(2,2-difluoro-3-hydroxypropylamino)-9H-purin-9-yl)cyclohexanecarboxamide], for which the IC50 is > 1000 nM.
Take `NC(=O)[C@H]1CC[C@@H](n2c(Nc3c(Cl)cc(Cl)cc3Cl)nc3cnc(N[C@@H]4CCCC[C@@H]4O)nc32)CC1` [Example 483, (1S,4s)-4-(2-((1R,2S)-2-hydroxycyclohexylamino)-8-(2,4,6-trichlorophenylamino)-9H-purin-9-yl)cyclohexanecarboxamide]: the IC50 is > 1000 nM.
The same measure, in the same setting: as for `C[C@]1(C(N)=O)CC[C@@H](n2c(Nc3c(Cl)cc(Cl)cc3Cl)nc3cnc(NC4CCCC4)nc32)CC1` [Example 574, (1s,4s)-4-(2-(cyclopentylamino)-8-(2,4,6-trichlorophenylamino)-9H-purin-9-yl)-1-methylcyclohexanecarboxamide], the figure is 250 to 500 nM; as for `N#Cc1cc(F)c(Nc2nc3cnc(N[C@@H]4CCC[C@H](O)C4)nc3n2[C@H]2CC[C@@H](C(N)=O)CC2)c(Cl)c1` [Example 456, (1S,4s)-4-(8-(2-chloro-4-cyano-6-fluorophenylamino)-2-((1R,3S)-3-hydroxycyclohexylamino)-9H-purin-9-yl)cyclohexanecarboxamide], 500 to 1000 nM; as for `NC(=O)[C@H]1CC[C@@H](n2c(Nc3c(F)cc(Cl)cc3Cl)nc3cnc(NCC(F)(F)CO)nc32)CC1` [Example 451, (1s,4s)-4-(8-(2,4-dichloro-6-fluorophenylamino)-2-(2,2-difluoro-3-hydroxypropylamino)-9H-purin-9-yl)cyclohexanecarboxamide], > 1000 nM.
`C[C@]1(C(N)=O)CC[C@H](n2c(Nc3c(F)cc(Cl)cc3F)nc3cnc(NC4CCCC4)nc32)CC1` [Example 489, (1r,4r)-4-(8-(4-chloro-2,6-difluorophenylamino)-2-(cyclopentylamino)-9H-purin-9-yl)-1-methylcyclohexanecarboxamide]: the IC50 is > 1000 nM.

The test is the same for the next values; noted with them: Homo sapiens; Lox-IMVI melanoma cell line, anti-proliferative assay; read-out: Activity (IC50 activity level).
With `NC(=O)[C@H]1CC[C@@H](n2c(Nc3c(F)cc(F)cc3Cl)nc3cnc(NC4CCC(c5ncno5)CC4)nc32)CC1` (stereo partly drawn) [Example 677, (1s,4s)-4-(2-(4-(1,2,4-oxadiazol-5-yl)cyclohexylamino)-8-(2-chloro-4,6-difluorophenylamino)-9H-purin-9-yl)cyclohexanecarboxamide], the IC50 is > 1000 nM.
On the same count and under the same terms, the value for `C[C@]1(C(N)=O)CC[C@@H](n2c(Nc3c(F)cc(Cl)cc3Cl)nc3cnc(NC4CCOCC4)nc32)CC1` [Example 674, (1s,4s)-4-(8-(2,4-dichloro-6-fluorophenylamino)-2-(tetrahydro-2H-pyran-4-ylamino)-9H-purin-9-yl)-1-methylcyclohexanecarboxamide] was < 250 nM.
With `NC(=O)[C@H]1CC[C@@H](n2c(Nc3c(F)cc(Cl)cc3Cl)nc3cnc(N[C@@H]4CCOC[C@H]4F)nc32)CC1` [Example 728, (1S,4s)-4-(8-(2,4-dichloro-6-fluorophenylamino)-2-((3S,4R)-3-fluorotetrahydro-2H-pyran-4-ylamino)-9H-purin-9-yl)cyclohexanecarboxamide], the IC50 was < 250 nM.
In the case of `CC1(C)COCC[C@H]1Nc1ncc2nc(Nc3c(Cl)cc(Cl)cc3Cl)n([C@H]3CC[C@@H](C(N)=O)CC3)c2n1` [Example 766, (1S,4s)-4-(2-((R)-3,3-dimethyltetrahydro-2H-pyran-4-ylamino)-8-(2,4,6-trichlorophenylamino)-9H-purin-9-yl)cyclohexanecarboxamide], the IC50 fell in the range of 500 to 1000 nM.
The same measure, in the same setting: the value for `C[C@@H]1COCC[C@H]1Nc1ncc2nc(Nc3c(F)cc(F)cc3Cl)n([C@H]3CC[C@@H](C(N)=O)CC3)c2n1` [Example 723, (1S,4s)-4-(8-(2-chloro-4,6-difluorophenylamino)-2-((3S,4R)-3-methyltetrahydro-2H-pyran-4-ylamino)-9H-purin-9-yl)cyclohexanecarboxamide] was < 250 nM; that for `N#Cc1cc(F)c(Nc2nc3cnc(N[C@H]4CCC[C@H](O)C4)nc3n2[C@H]2CC[C@@H](C(N)=O)CC2)c(Cl)c1` [Example 689, (1R,4s)-4-(8-(2-chloro-4-cyano-6-fluorophenylamino)-2-((1S,3S)-3-hydroxycyclohexylamino)-9H-purin-9-yl)cyclohexanecarboxamide] was 250 to 500 nM.

The test is the same for the next values; noted with them: Lox-IMVI melanoma cell line, anti-proliferative assay; read-out: Activity (IC50 activity level).
“(R)-isopropyl 3-(9-((1s,4S)-4- carbamoylcyclohexyl)-8-(2-chloro-4- cyano-6-fluorophenylamino)-9H-purin- 2-ylamino)piperidine-1-carboxylate [Example 776]”: the IC50 fell in the range of 500 to 1000 nM.
